Molecular target: T1, CGRP receptor (SK-N-MC cell membranes) (Homo sapiens, UniProt O60894+Q16602)
T1 construct: endogenous in cells; host or cells: SK-N-MC cells (membrane homogenate)
Experiment: CGRP Binding Assay ([125I]-CGRP radioligand binding, SK-N-MC homogenate)
Settings: displacement of [125I]-CGRP, SK-N-MC homogenate; read-out: CGRP binding IC50
Protocol: Tissue Culture. SK-N-MC cells were grown at 37° C. in 5% CO2 as a monolayer in medium consisting of MEM with Earle's salts and L-glutamine (Gibco) supplemented with 10% fetal bovine serum (Gibco).
Cell Pellets. […] The cells were transferred from plates to polypropylene tubes (16×100 mm) and homogenized using a polytron. Homogenates were centrifuged at 32,000×g for 30 min. The pellets were resuspended in cold hypotonic lysis buffer with 0.1% mammalian protease inhibitor cocktail (Sigma) and assayed for protein concentration. The SK-N-MC homogenate was then aliquoted and stored at −80° C. until needed.
Radioligand Binding Assay. The compounds of invention were solubilized and carried through serial dilutions using 100% DMSO. Aliquots from the compound serial dilutions were further diluted 25 fold into assay buffer (50 mM Tris-Cl pH 7.5, 5 mM MgCl2, 0.005% Triton X-100) and transferred (volume 50 μl) into 96 well assay plates. […] SK-N-MC pellets were thawed, diluted in assay buffer with fresh 0.1% mammalian protease inhibitor cocktail (Sigma), and homogenized again. SK-N-MC homogenate (5 μg/well) was added in a volume of 100 μl. The assay plates were then incubated at room temperature for 2 h. Assays were stopped by addition of excess cold wash buffer (20 mM Tris-Cl pH 7.5, 0.1% BSA) immediately followed by filtration over glass fiber filters (Whatman GF/B) previously soaked in 0.5% PEI. Non-specific binding was defined with 1 μM beta-CGRP. Protein bound radioactivity was determined using a gamma or scintillation counter.

T1 sequence (Q16602 23-461): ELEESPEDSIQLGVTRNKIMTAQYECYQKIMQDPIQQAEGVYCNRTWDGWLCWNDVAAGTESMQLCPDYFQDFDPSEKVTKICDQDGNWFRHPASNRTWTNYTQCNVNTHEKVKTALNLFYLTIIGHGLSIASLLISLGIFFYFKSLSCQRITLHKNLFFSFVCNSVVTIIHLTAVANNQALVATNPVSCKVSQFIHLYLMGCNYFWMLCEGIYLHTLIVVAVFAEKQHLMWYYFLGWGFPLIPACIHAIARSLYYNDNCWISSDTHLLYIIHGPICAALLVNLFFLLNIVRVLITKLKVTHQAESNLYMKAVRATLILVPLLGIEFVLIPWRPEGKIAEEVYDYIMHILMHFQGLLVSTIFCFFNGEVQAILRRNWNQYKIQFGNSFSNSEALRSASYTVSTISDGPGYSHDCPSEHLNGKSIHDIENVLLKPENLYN
T1 sequence (O60894 27-148): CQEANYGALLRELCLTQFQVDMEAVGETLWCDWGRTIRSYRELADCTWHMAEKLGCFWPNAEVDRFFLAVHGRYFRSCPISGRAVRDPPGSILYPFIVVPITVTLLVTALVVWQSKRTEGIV

| IC50 | SMILES |
| --- | --- |
| < 10 nM | O=C(N[C@H](Cc1ccc2nn[nH]c2c1)C(=O)N1CCC(N2CCCCC2)CC1)N1CCC(N2Cc3ccccc3NC2=O)CC1 [Example 49, (R)-4-(2-Oxo-1,4-dihydro-2H-quinazolin-3-yl)-piperidine-1-carboxylic acid[1-(1H-benzotriazol-5-ylmethyl)-2-[1,4′]bipiperidinyl-1′-yl-2-oxo-ethyl]-amide] |
| 10 to 100 nM | O=C(Nc1ccc(Oc2ccccc2)cc1)N[C@@H](CC(=O)N1CCC(N2Cc3ccccc3NC2=O)CC1)C(=O)N1CCC(N2CCCCC2)CC1 [Example 146] |
| 10 to 100 nM | O=C(Nc1cccc(Cl)c1)N[C@@H](CC(=O)N1CCC(N2Cc3ccccc3NC2=O)CC1)C(=O)N1CCC(N2CCCCC2)CC1 [Example 178] |
| 10 to 100 nM | O=C(Nc1ccccc1Cl)N[C@@H](CC(=O)N1CCC(N2Cc3ccccc3NC2=O)CC1)C(=O)N1CCC(N2CCCCC2)CC1 [Example 172] |
| 100 to 1000 nM | COC(=O)C(Cc1cc(Cl)c2[nH]ncc2c1)NC(=O)N1CCC(N2Cc3ccccc3NC2=O)CC1 (racemic) [Example 42, (±)-3-(7-Chloro-1H-indazol-5-yl)-2-{[4-(2-oxo-1,4-dihydro-2H-quinazolin-3-yl)-piperidine-1-carbonyl]-amino}-propionic acid methyl ester] |
| > 1000 nM | CCCCC(CC)CN1CCN(C(=O)C(Cc2ccc3[nH]ncc3c2)NC(=O)N2CCC(N3Cc4ccccc4NC3=O)CC2)CC1 (stereo not drawn) [Example 40f] |
| 100 to 1000 nM | CCOC(=O)C(C)NC(=O)N[C@@H](CC(=O)N1CCC(N2Cc3ccccc3NC2=O)CC1)C(=O)N1CCC(N2CCCCC2)CC1 (stereo partly drawn) [Example 170] |
| 100 to 1000 nM | O=C(N[C@@H](CC(=O)N1CCC(N2Cc3ccccc3NC2=O)CC1)C(=O)N1CCC(N2CCCCC2)CC1)c1ccc2c(c1)OCO2 [Example 114] |
| 100 to 1000 nM | O=C(N[C@@H](CC(=O)N1CCC(N2Cc3ccccc3NC2=O)CC1)C(=O)N1CCC(N2CCCCC2)CC1)c1ccc(O)cc1 [Example 100, (L)-N-{1-([1,4′]Bipiperidinyl-1′-carbonyl)-3-oxo-3-[4-(2-oxo-1,4-dihydro-2H-quinazolin-3-yl)-piperidin-1-yl]-propyl}-4-hydroxy-benzamide] |
| 100 to 1000 nM | O=C(N[C@@H](CC(=O)N1CCC(N2Cc3ccccc3NC2=O)CC1)C(=O)N1CCC(N2CCCCC2)CC1)c1ccc(Br)cc1 [Example 119] |
| 10 to 100 nM | Cc1nc(N[C@@H](CC(=O)N2CCC(N3Cc4ccccc4NC3=O)CC2)C(=O)N2CCC(N3CCCCC3)CC2)nc(N)c1[N+](=O)[O-] [Example 90, (L)-2-(4-Amino-6-methyl-5-nitro-pyrimidin-2-ylamino)-1-[1,4′]bipiperidinyl-1′-yl-4-[4-(2-oxo-1,4-dihydro-2H-quinazolin-3-yl)-piperidin-1-yl]-butane-1,4-dione] |
| > 1000 nM | CCCCN1CCN(C(=O)C(Cc2ccc3[nH]ncc3c2)NC(=O)N2CCC(N3Cc4ccccc4NC3=O)CC2)CC1 (stereo not drawn) [Example 40c] |
| > 1000 nM | O=C(C[C@H](Nc1ccncn1)C(=O)N1CCC(N2CCCCC2)CC1)N1CCC(N2Cc3ccccc3NC2=O)CC1 [Example 96, (L)-1-[1,4′]Bipiperidinyl-1′-yl-4-[4-(2-oxo-1,4-dihydro-2H-quinazolin-3-yl)-piperidin-1-yl]-2-(pyrimidin-4-ylamino)-butane-1,4-dione] |
| 100 to 1000 nM | O=C(N[C@@H](CC(=O)N1CCC(N2Cc3ccccc3NC2=O)CC1)C(=O)N1CCC(N2CCCCC2)CC1)c1cc(F)cc(F)c1 [Example 122] |
| 10 to 100 nM | O=C(Nc1ccc(Cl)cc1)N[C@@H](CC(=O)N1CCC(N2Cc3ccccc3NC2=O)CC1)C(=O)N1CCC(N2CCCCC2)CC1 [Example 140] |
| < 10 nM | Cc1cc(CC(NC(=O)N2CCC(N3Cc4ccccc4NC3=O)CC2)C(=O)OC2CCN(Cc3ccccc3)CC2)cc2cn[nH]c12 (stereo not drawn) [Example 41b, 3-(7-Methyl-1H-indazol-5-yl)-2-{[4-(2-oxo-1,4-dihydro-2H-quinazolin-3-yl)-piperidine-1-carbonyl]-amino}-propionic acid 1-benzyl-piperidin-4-yl ester] |
| 100 to 1000 nM | O=C(O)C(Cc1ccc2[nH]ncc2c1)NC(=O)N1CCC(N2Cc3ccccc3NC2=O)CC1 (racemic) [Example 1, (±)-3-(1H-Indazol-5-yl)-2-{[4-(2-oxo-1,4-dihydro-2H-quinazolin-3-yl)-piperidine-1-carbonyl]-amino}-propionic acid] |
| 10 to 100 nM | O=C(N[C@@H](CC(=O)N1CCC(N2Cc3ccccc3NC2=O)CC1)C(=O)N1CCC(N2CCCCC2)CC1)c1cccc(Cl)c1Cl [Example 123] |
| 100 to 1000 nM | CC(=O)c1cccc(NC(=O)N[C@@H](CC(=O)N2CCC(N3Cc4ccccc4NC3=O)CC2)C(=O)N2CCC(N3CCCCC3)CC2)c1 [Example 147] |
| 100 to 1000 nM | O=C(Nc1ccc(F)cc1)N[C@@H](CC(=O)N1CCC(N2Cc3ccccc3NC2=O)CC1)C(=O)N1CCC(N2CCCCC2)CC1 [Example 180] |

| IC50 | SMILES |
| --- | --- |
| 100 to 1000 nM | O=C(N[C@@H](CC(=O)N1CCC(N2Cc3ccccc3NC2=O)CC1)C(=O)N1CCC(N2CCCCC2)CC1)c1ccc(F)c(F)c1 [Example 102] |
| > 1000 nM | O=C(N[C@@H](CC(=O)N1CCC(N2Cc3ccccc3NC2=O)CC1)C(=O)N1CCC(N2CCCCC2)CC1)c1cc[nH]n1 [Example 101, (L)-1H-Pyrazole-3-carboxylic acid{1-([1,4′]bipiperidinyl-1′-carbonyl)-3-oxo-3-[4-(2-oxo-1,4-dihydro-2H-quinazolin-3-yl)-piperidin-1-yl]-propyl}-amide] |
| 100 to 1000 nM | COC(=O)C(CN1Cc2cn[nH]c2C(C)(C)C1)NC(=O)N1CCC(N2Cc3ccccc3NC2=O)CC1 (racemic) [Example 55, (±)-3-(7,7-Dimethyl-1,4,6,7-tetrahydro-pyrazolo[4,3-c]pyridin-5-yl)-2-{[4-(2-oxo-1,4-dihydro-2H-quinazolin-3-yl)-piperidine-1-carbonyl]-amino}-propionic acid methyl ester] |
| 100 to 1000 nM | O=C(N[C@@H](CC(=O)N1CCC(N2Cc3ccccc3NC2=O)CC1)C(=O)N1CCC(N2CCCCC2)CC1)c1cc2ccccc2s1 [Example 126] |
| 100 to 1000 nM | Cc1cc(Cl)ccc1NC(=O)N[C@@H](CC(=O)N1CCC(N2Cc3ccccc3NC2=O)CC1)C(=O)N1CCC(N2CCCCC2)CC1 [Example 191] |
| 100 to 1000 nM | O=C(Nc1ccc2ccccc2c1)N[C@@H](CC(=O)N1CCC(N2Cc3ccccc3NC2=O)CC1)C(=O)N1CCC(N2CCCCC2)CC1 [Example 135] |
| 100 to 1000 nM | O=C(N[C@@H](CC(=O)N1CCC(N2Cc3ccccc3NC2=O)CC1)C(=O)N1CCC(N2CCCCC2)CC1)C1CC1 [Example 103] |
| 10 to 100 nM | CCCCCCCN1CCN(C(=O)C(Cc2ccc3[nH]ncc3c2)NC(=O)N2CCC(N3Cc4ccccc4NC3=O)CC2)CC1 (stereo not drawn) [Example 40b] |
| 100 to 1000 nM | O=C(Nc1cc(Cl)nc(Cl)c1)N[C@@H](CC(=O)N1CCC(N2Cc3ccccc3NC2=O)CC1)C(=O)N1CCC(N2CCCCC2)CC1 [Example 164] |
| 10 to 100 nM | COC(=O)c1cccc(NC(=O)N[C@@H](CC(=O)N2CCC(N3Cc4ccccc4NC3=O)CC2)C(=O)N2CCC(N3CCCCC3)CC2)c1 [Example 196] |
| 100 to 1000 nM | Cc1cc(Br)ccc1NC(=O)N[C@@H](CC(=O)N1CCC(N2Cc3ccccc3NC2=O)CC1)C(=O)N1CCC(N2CCCCC2)CC1 [Example 194] |
| 100 to 1000 nM | CCc1ccc(NC(=O)N[C@@H](CC(=O)N2CCC(N3Cc4ccccc4NC3=O)CC2)C(=O)N2CCC(N3CCCCC3)CC2)cc1 [Example 190] |
| > 1000 nM | COC(=O)[C@@H](Cc1ccc2[nH]nnc2c1)NC(=O)N1CCC(N2Cc3ccccc3NC2=O)CC1 [Example 48, (R)-3-(1H-Benzotriazol-5-yl)-2-{[4-(2-oxo-1,4-dihydro-2H-quinazolin-3-yl)-piperidine-1-carbonyl]-amino}-propionic acid methyl ester] |
| 10 to 100 nM | Cc1cc(CC(NC(=O)N2CCC(N3Cc4ccccc4NC3=O)CC2)C(=O)OC2CCC(c3ccccc3)CC2)cc2cn[nH]c12 (stereo not drawn) [Example 41d, 3-(7-Methyl-1H-indazol-5-yl)-2-{[4-(2-oxo-1,4-dihydro-2H-quinazolin-3-yl)-piperidine-1-carbonyl]-amino}-propionic acid 4-phenyl-cyclohexyl ester] |
| 100 to 1000 nM | CC(=O)N[C@@H](CC(=O)N1CCC(N2Cc3ccccc3NC2=O)CC1)C(=O)N1CCC(N2CCCCC2)CC1 [Example 120] |
| 100 to 1000 nM | O=C(Cc1ccccc1)N[C@@H](CC(=O)N1CCC(N2Cc3ccccc3NC2=O)CC1)C(=O)N1CCC(N2CCCCC2)CC1 [Example 106] |
| 100 to 1000 nM | O=C(C[C@H](Nc1ccc2[nH]ncc2c1)C(=O)N1CCC(N2CCCCC2)CC1)N1CCC(N2Cc3ccccc3NC2=O)CC1 (racemic) [Example 201, (±)-1-[1,4′]Bipiperidinyl-1′-yl-2-(1H-indazol-5-ylamino)-4-[4-(2-oxo-1,4-dihydro-2H-quinazolin-3-yl)-piperidin-1-yl]-butane-1,4-dione] |
| 100 to 1000 nM | Cc1ccc(NC(=O)N[C@@H](CC(=O)N2CCC(N3Cc4ccccc4NC3=O)CC2)C(=O)N2CCC(N3CCCCC3)CC2)c(C)c1 [Example 185] |
| 100 to 1000 nM | O=C(C[C@H](NC(=O)n1c2ccccc2c2ccccc21)C(=O)N1CCC(N2CCCCC2)CC1)N1CCC(N2Cc3ccccc3NC2=O)CC1 [Example 115] |

— patent US7842808B2, “Anti-migraine spirocycles” (Bristol-Myers Squibb Company, priority 2002, dated 2010)
